Assay results from patent EP0075029A1, “AGENT FOR TREATING CHRONIC OBLITERATIVE LUNG DISEASE” (priority 1981, dated 1982).
Counter-ions that a name gives are not always drawn.

How the values were obtained:
[1] = system: blood-perfused trachea in situ; assay: Blood-perfused trachea in situ (Himori and Taira): tracheal blood flow and inside pressure of the trachea; assay type: in vivo; settings: intraarterial injection, dogs
Description: The cervix of each dog was medisected to expose the pharynx and the upper part of the trachea.
The blood was introduced from the femoral artery by a peristaltic pump, and a part of the blood stream was by-passed to the downstream of the femoral artery through a Starling's air resistance tube provided parallel to the vascular bed of the trachea, thereby performing the perfusion under a constant pressure. The pressure of the perfusion was kept a little higher than the mean aortic blood pressure.
On the other hand, water was placed into the cuff of a tracheal tube equipped with a cuff, and the tube was inserted into the trachea. Then, the inside pressure of the cuff was measured by a pressure transducer to determine the inside pressure of the trachea as follows. Initially, water was placed in the cuff in such a manner that the static inside pressure of the trachea was about 40 cm H20. During the experiment, the tonus (the inside pressure of the trachea) of the tracheal smooth muscles in stationary phases was maintained by continuous intraarterial injections of 3 pg each of neostigmine into the vascular bed of the trachea at 30-minute intervals.
As an index of the selectivity of the dilating activity for trachea, the ratio of the increase of the blood flow in the trachea to the decrease of the inside pressure of the trachea was determined.

[2] = system: bronchi in situ; assay: animal or person; settings: Canis lupus familiaris, iv, read-out: Percent inhibition
Description: The experiment was carried out in accordance with the Konzett-R6essler's method [Konzett, H. and Roessler, R: Arch. Exp. Pathol.
Six mongrel adult dogs were anesthetized with pentobarbital sodium (30 mg/kg). A tracheal cannula was inserted, and under artificial respiration, holes were incised in the right and left pleurae to equalize the pressure of the pleural cavity to the atmospheric pressure. The amount of air which overflowed by inspiration against a pressure of 10±1 cm H20 applied from the branch of the cannula was measured by a pneumotachograph.

Compound | effect on blood flow in the trachea and inside pressure of the trachea [1] | inhibition at 3 mg/kg [2]
CC(C)NCC(O)c1ccc(O)c(O)c1 (single isomer, unassigned; (-)) [isoproterenol, (-) isoproterenol hydrochloride] | increased the blood flow in the trachea and reduced the inside pressure of the trachea in a dose dependent manner | –
Cn1c(=O)c2[nH]cnc2n(C)c1=O [Theophylline, theophylline] | increased the blood flow in the trachea and reduced the inside pressure of the trachea in a dose dependent manner | 56%
